Source: PubChem BioAssay AID1963441 (Molecular Pharmacology Branch, DTP, NCI, 2024)
pIC50: −log10 of the molar value. Values belong to the compound of their own block, whether it stands above or below them.

Tested on: NCI-H1876 complex spheroid growth, % test/control
Assay: Anticancer human tumor NCI-H1876 cell line growth inhibition [Asc];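 further: compound exposure lasted 7 days starting three days after seeding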;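 on viability, T/C: 100% = DMSO vehicle control wells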
Settings: for pIC50: curve of first compound; for viability, T/C: stronger effect = lower value
In short: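 Tumor cells were grown as multicellular spheroids with stromal HUVEC and mesenchymal stem cells and treated singly or in combination. Concentrations fell in half-log steps from the clinical Cmax, or from 10 microM where none was known.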

[1] = second compound 0.0316 µM, first compound 0.0316 µM
[2] = second compound 0.0316 µM, first compound 0.1 µM
[3] = second compound 0.0316 µM, first compound 0.316 µM
[4] = second compound 0.0316 µM, first compound 1 µM
[5] = second compound 0.1 µM, first compound 0.0316 µM
[6] = second compound 0.1 µM, first compound 0.1 µM
[7] = second compound 0.1 µM, first compound 0.316 µM
[8] = second compound 0.1 µM, first compound 1 µM
[9] = second compound 0.316 µM, first compound 0.0316 µM
[10] = second compound 0.316 µM, first compound 0.1 µM
[11] = second compound 0.316 µM, first compound 0.316 µM
[12] = second compound 0.316 µM, first compound 1 µM
[13] = second compound 1 µM, first compound 0.0316 µM
[14] = second compound 1 µM, first compound 0.1 µM
[15] = second compound 1 µM, first compound 0.316 µM
[16] = second compound 1 µM, first compound 1 µM

pIC50 (second compound 0.0316 µM): < 5.00
pIC50 (second compound 0.1 µM): < 5.00
pIC50 (second compound 0.316 µM): < 5.00
pIC50 (second compound 1 µM): < 5.00
pIC50 (second compound 3.16 µM): < 5.00
pIC50 (second compound 10 µM): < 5.00
Compound: C#Cc1c(F)ccc2cc(O)cc(-c3ncc4c(N5CC6CCC(C5)N6)nc(OCC56CCCN5CC(F)C6)nc4c3F)c12 (stereo unspecified) + Cc1c(S(C)(=O)=O)c(-c2cc(F)cc(N3CCN(c4ccc(NS(=O)(=O)c5ccc(NC(CCN6CCC(C(=O)OCCCP(=O)(O)O)CC6)CSc6ccccc6)c(S(=O)(=O)C(F)(F)F)c5)cc4)CC3)c2)c(-c2ccc(Cl)cc2)n1C(C)C
viability, T/C [1]: 98.7%
viability, T/C [2]: 84.9%
viability, T/C [3]: 108%
viability, T/C [4]: 91.2%
viability, T/C (second compound 0.0316 µM, first compound 3.16 µM): 96.8%
viability, T/C (second compound 0.0316 µM, first compound 10 µM): 92.9%
viability, T/C [5]: 92.2%
viability, T/C [6]: 101%
viability, T/C [7]: 99.3%
viability, T/C [8]: 83.1%
viability, T/C (second compound 0.1 µM, first compound 3.16 µM): 90.6%
viability, T/C (second compound 0.1 µM, first compound 10 µM): 88%
viability, T/C [9]: 106%
viability, T/C [10]: 90.5%
viability, T/C [11]: 85.5%
viability, T/C [12]: 90.7%
viability, T/C (second compound 0.316 µM, first compound 3.16 µM): 86.5%
viability, T/C (second compound 0.316 µM, first compound 10 µM): 86.7%
viability, T/C [13]: 90%
viability, T/C [14]: 97.8%
viability, T/C [15]: 102%
viability, T/C [16]: 92%
viability, T/C (second compound 1 µM, first compound 3.16 µM): 88.2%
viability, T/C (second compound 1 µM, first compound 10 µM): 73.5%
viability, T/C (second compound 3.16 µM, first compound 0.0316 µM): 101%
viability, T/C (second compound 3.16 µM, first compound 0.1 µM): 108%
viability, T/C (second compound 3.16 µM, first compound 0.316 µM): 89.5%
viability, T/C (second compound 3.16 µM, first compound 1 µM): 87.4%
viability, T/C (second compound 3.16 µM, first compound 3.16 µM): 87.3%
viability, T/C (second compound 3.16 µM, first compound 10 µM): 74.7%
viability, T/C (second compound 10 µM, first compound 0.0316 µM): 93.2%
viability, T/C (second compound 10 µM, first compound 0.1 µM): 99.4%
viability, T/C (second compound 10 µM, first compound 0.316 µM): 109%
viability, T/C (second compound 10 µM, first compound 1 µM): 93.6%
viability, T/C (second compound 10 µM, first compound 3.16 µM): 95.8%
viability, T/C (second compound 10 µM, first compound 10 µM): 77%

pIC50 (second compound 0.00316 µM): < 6.00
pIC50 (second compound 0.01 µM): < 6.00
pIC50 (second compound 0.0316 µM): < 6.00
pIC50 (second compound 0.1 µM): < 6.00
pIC50 (second compound 0.316 µM): < 6.00
pIC50 (second compound 1 µM): < 6.00
Compound: O=C(c1ccc(F)c(F)c1Nc1ccc(I)cc1F)N1CC(O)([C@@H]2CCCCN2)C1 + CNC(C)C(=O)NC1CN(S(=O)(=O)c2cccc(S(=O)(=O)N3CCC4CCC(C(=O)NC(c5ccccc5)c5ccccc5)N4C(=O)C(NC(=O)C(C)NC)C3)c2)CCC2CCC(C(=O)NC(c3ccccc3)c3ccccc3)N2C1=O
viability, T/C (second compound 0.00316 µM, first compound 0.00316 µM): 109%
viability, T/C (second compound 0.00316 µM, first compound 0.01 µM): 87.3%
viability, T/C (second compound 0.00316 µM, first compound 0.0316 µM): 114%
viability, T/C (second compound 0.00316 µM, first compound 0.1 µM): 80.5%
viability, T/C (second compound 0.00316 µM, first compound 0.316 µM): 80.5%
viability, T/C (second compound 0.00316 µM, first compound 1 µM): 70.6%
viability, T/C (second compound 0.01 µM, first compound 0.00316 µM): 110%
viability, T/C (second compound 0.01 µM, first compound 0.01 µM): 93.6%
viability, T/C (second compound 0.01 µM, first compound 0.0316 µM): 96.2%
viability, T/C (second compound 0.01 µM, first compound 0.1 µM): 82.3%
viability, T/C (second compound 0.01 µM, first compound 0.316 µM): 90.8%
viability, T/C (second compound 0.01 µM, first compound 1 µM): 81.7%
viability, T/C (second compound 0.0316 µM, first compound 0.00316 µM): 98.5%
viability, T/C (second compound 0.0316 µM, first compound 0.01 µM): 90.3%
viability, T/C [1]: 102%
viability, T/C [2]: 87.3%
viability, T/C [3]: 85.5%
viability, T/C [4]: 83.2%
viability, T/C (second compound 0.1 µM, first compound 0.00316 µM): 106%
viability, T/C (second compound 0.1 µM, first compound 0.01 µM): 103%
viability, T/C [5]: 96.3%
viability, T/C [6]: 89.8%
viability, T/C [7]: 86.3%
viability, T/C [8]: 90.5%
viability, T/C (second compound 0.316 µM, first compound 0.00316 µM): 106%
viability, T/C (second compound 0.316 µM, first compound 0.01 µM): 90.1%
viability, T/C [9]: 89.9%
viability, T/C [10]: 96.9%
viability, T/C [11]: 97%
viability, T/C [12]: 72.3%
viability, T/C (second compound 1 µM, first compound 0.00316 µM): 107%
viability, T/C (second compound 1 µM, first compound 0.01 µM): 93.7%
viability, T/C [13]: 99.2%
viability, T/C [14]: 97.4%
viability, T/C [15]: 88%
viability, T/C [16]: 69.8%

pIC50 (second compound 0.0316 µM): < 5.52
pIC50 (second compound 0.1 µM): < 5.52
pIC50 (second compound 0.316 µM): < 5.52
pIC50 (second compound 1 µM): < 5.52
pIC50 (second compound 3.16 µM): < 5.52
pIC50 (second compound 10 µM): 5.56
Compound: CCN1C(C(=O)NC23CCC(C(=O)O)(CC2)CC3)C(c2cccc(Cl)c2F)C2(C(=O)Nc3cc(Cl)ccc32)C12CCCCC2 (stereo unspecified) + Cc1c(S(C)(=O)=O)c(-c2cc(F)cc(N3CCN(c4ccc(NS(=O)(=O)c5ccc(NC(CCN6CCC(C(=O)OCCCP(=O)(O)O)CC6)CSc6ccccc6)c(S(=O)(=O)C(F)(F)F)c5)cc4)CC3)c2)c(-c2ccc(Cl)cc2)n1C(C)C
viability, T/C (second compound 0.0316 µM, first compound 0.00949 µM): 97.3%
viability, T/C (second compound 0.0316 µM, first compound 0.03 µM): 85.5%
viability, T/C (second compound 0.0316 µM, first compound 0.0949 µM): 98.5%
viability, T/C (second compound 0.0316 µM, first compound 0.3 µM): 107%
viability, T/C (second compound 0.0316 µM, first compound 0.949 µM): 125%
viability, T/C (second compound 0.0316 µM, first compound 3 µM): 106%
viability, T/C (second compound 0.1 µM, first compound 0.00949 µM): 95%
viability, T/C (second compound 0.1 µM, first compound 0.03 µM): 105%
viability, T/C (second compound 0.1 µM, first compound 0.0949 µM): 99.5%
viability, T/C (second compound 0.1 µM, first compound 0.3 µM): 105%
viability, T/C (second compound 0.1 µM, first compound 0.949 µM): 124%
viability, T/C (second compound 0.1 µM, first compound 3 µM): 98.2%
viability, T/C (second compound 0.316 µM, first compound 0.00949 µM): 99%
viability, T/C (second compound 0.316 µM, first compound 0.03 µM): 96.4%
viability, T/C (second compound 0.316 µM, first compound 0.0949 µM): 107%
viability, T/C (second compound 0.316 µM, first compound 0.3 µM): 96.1%
viability, T/C (second compound 0.316 µM, first compound 0.949 µM): 116%
viability, T/C (second compound 0.316 µM, first compound 3 µM): 81.2%
viability, T/C (second compound 1 µM, first compound 0.00949 µM): 95.2%
viability, T/C (second compound 1 µM, first compound 0.03 µM): 91.7%
viability, T/C (second compound 1 µM, first compound 0.0949 µM): 104%
viability, T/C (second compound 1 µM, first compound 0.3 µM): 108%
viability, T/C (second compound 1 µM, first compound 0.949 µM): 121%
viability, T/C (second compound 1 µM, first compound 3 µM): 60.4%
viability, T/C (second compound 3.16 µM, first compound 0.00949 µM): 104%
viability, T/C (second compound 3.16 µM, first compound 0.03 µM): 107%
viability, T/C (second compound 3.16 µM, first compound 0.0949 µM): 96.6%
viability, T/C (second compound 3.16 µM, first compound 0.3 µM): 107%
viability, T/C (second compound 3.16 µM, first compound 0.949 µM): 110%
viability, T/C (second compound 3.16 µM, first compound 3 µM): 50.7%
viability, T/C (second compound 10 µM, first compound 0.00949 µM): 103%
viability, T/C (second compound 10 µM, first compound 0.03 µM): 99.7%
viability, T/C (second compound 10 µM, first compound 0.0949 µM): 94%
viability, T/C (second compound 10 µM, first compound 0.3 µM): 107%
viability, T/C (second compound 10 µM, first compound 0.949 µM): 115%
viability, T/C (second compound 10 µM, first compound 3 µM): 45.3%
